The values that follow come from patent US8791100B2 (Novartis AG, priority 2010, dated 2014).

Structures are written as SMILES.

Sequence of human S1P1 receptors (P21453 whole entry): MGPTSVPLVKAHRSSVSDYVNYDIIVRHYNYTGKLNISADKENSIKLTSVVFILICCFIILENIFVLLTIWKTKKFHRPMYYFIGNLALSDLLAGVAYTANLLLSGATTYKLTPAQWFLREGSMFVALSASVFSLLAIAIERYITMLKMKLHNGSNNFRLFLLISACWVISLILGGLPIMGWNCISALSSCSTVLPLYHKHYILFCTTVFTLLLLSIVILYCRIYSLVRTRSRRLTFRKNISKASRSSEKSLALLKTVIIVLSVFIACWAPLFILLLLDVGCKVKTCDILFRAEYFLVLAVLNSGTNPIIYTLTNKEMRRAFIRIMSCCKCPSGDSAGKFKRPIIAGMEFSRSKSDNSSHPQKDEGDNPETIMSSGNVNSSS

The target in the test is human S1P1 receptors (Homo sapiens (Human), UniProt P21453). The experiment in a line: Human S1P1 Receptor Calcium FLIPR Antagonist Assay (HeLa Gα16 S1P1). In kind it is cell-based. The following applies: relative antagonism vs probing agonist GNF-AC-1 at EC80, HeLa-S1P1/Gα16 cells. From the text:
Human S1P1 Receptor Calcium FLIPR Antagonist Assay
The assay measures intracellular changes of Ca^2+ mediated by the synthetic probing agonist 3-{[2-(2-Trifluoromethyl-biphenyl-4-yl)-benzo[b]thiophen-5-ylmethyl]-amino}-propionic acid (GNF-AC-1) in the HeLa-S1P1/Gα16 cell clone 1: HeLa (human cervix carcinoma, ATCC CCL2) cells stably expressing N-terminally myc-tagged human S1P1 receptors (GenBank™ accession No. NM_001400; UNIPROT P21453) and promiscuous Gα16 protein (GenBank™ accession number M63904, Swissprot P30679) are cultured at 37° C., 5% CO2, and 95% relative humidity. The cells are plated in 384 well black plates (10′000 cells per well). After 24 hours the cells are loaded with Fluo-4-AM (1.6 μM in HBSS and 2.5 mM probenicid) for 1 hour at 37° C. After washing, the cells are transferred to the FLIPR. The test compounds are added at different concentrations (≦100 μM) in HBSS in the presence of 0.1% BSA and changes in fluorescence are recorded (indication of agonism). The probing agonist is added 20-30 minutes afterwards to the wells at a concentration giving 80% of the maximal activity (EC80). After each addition, time points are collected as follows: 20 time points (2 seconds) before the addition of the agonist (Fmin) and 60 time points (1 or 2 seconds) after the addition of the probing agonist. This allows the determination of the maximal fluorescence (Fmax). The ratio (Fmax−Fmin)/Fmin is plotted against the log of the concentration of the test compounds and the IC50 (relative antagonism) is calculated using the XLfit-4 software. […] A concentration-response curve of the probing agonist is determined on each plate in parallel.
Broadly, the IC50 is the concentration that inhibits the measured activity by half. In the case of `CC[C@@H](Nc1cc(CN2CCC(C)(C(=O)O)C2)c(Cl)cn1)c1ccc(Cl)c(C)c1` (single isomer, unassigned) [Example 87], the half-maximal inhibitory concentration (IC50) stood at 0.7 nM.
With `Cc1cc(C(C)Nc2cccc(CN3CC(C(=O)O)C3)c2)ccc1Cl` (centres unmarked) [Example 1, 1-{3-[1-(4-Chloro-3-methyl-phenyl)-ethylamino]-benzyl}-azetidine-3-carboxylic acid] the figure was 14.7 nM.
For `CCC(Nc1cccc(CN2CC(C(=O)O)C2)c1)c1ccc(Cl)c(C)c1` (centres unmarked) [Example 2, 1-{3-[1-(4-Chloro-3-methyl-phenyl)-propylamino]-benzyl}-azetidine-3-carboxylic acid], the 50% inhibitory concentration (IC50) is 3.5 nM.
As to `CC[C@@H](Nc1cccc(CN2CC(C(=O)O)C2)c1)c1ccc(Cl)c(C)c1` [Example 3, 1-{3-[(R)-1-(4-Chloro-3-methyl-phenyl)-propylamino]-benzyl}-azetidine-3-carboxylic acid], the 50% inhibitory concentration (IC50) was found to be 0.9 nM.
As to `CCC(Nc1ccc(C)c(CN2CC(C(=O)O)C2)c1)c1ccc(Cl)c(C)c1` (centres unmarked) [Example 4, 1-{5-[1-(4-Chloro-3-methyl-phenyl)-propylamino]-2-methyl-benzyl}-azetidine-3-carboxylic acid], the 50% inhibitory concentration (IC50) was 0.2 nM.
With `CC[C@@H](Nc1cccc(C(C)N2CC(C(=O)O)C2)c1)c1ccc(Cl)c(C)c1` (stereo partly drawn) [Example 6, 1-(1-{3-[(R)-1-(4-Chloro-3-methyl-phenyl)-propylamino]-phenyl}-ethyl)-azetidine-3-carboxylic acid], the half-maximal inhibitory concentration (IC50) stood at 0.5 nM.
With `CC[C@@H](Nc1cccc(CN2CC(C)(C(=O)O)C2)c1)c1ccc(Cl)c(C)c1` [Example 8, 1-{3-[(R)-1-(4-Chloro-3-methyl-phenyl)-propylamino]-benzyl}-3-methyl-azetidine-3-carboxylic acid] the figure was 1.5 nM; with `CCC(Nc1cc(C)cc(CN2CC(C(=O)O)C2)c1)c1ccc(Cl)c(C)c1` (centres unmarked) [Example 9, 1-{3-[1-(4-Chloro-3-methyl-phenyl)-propylamino]-5-methyl-benzyl}-azetidine-3-carboxylic acid], 0.4 nM; with `CCC(Nc1ccc(C)c(C(C)N2CC(C(=O)O)C2)c1)c1ccc(Cl)c(C)c1` (centres unmarked) [Example 10, 1-(1-{5-[1-(4-Chloro-3-methyl-phenyl)-propylamino]-2-methyl-phenyl}-ethyl)-azetidine-3-carboxylic acid], 1.6 nM.
The same measure for `CC[C@@H](Nc1cccc(CN2CC[C@@H](C(=O)O)C2)c1)c1ccc(Cl)c(C)c1` [Example 11]: 4 nM.
Regarding `CCC(c1cccc(N[C@H](CC)c2ccc(Cl)c(C)c2)c1)N1CC(C(=O)O)C1` (stereo partly drawn) [Example 13, 1-(1-{3-[(R)-1-(4-Chloro-3-methyl-phenyl)-propylamino]-phenyl}-propyl)-azetidine-3-carboxylic acid], the half-maximal inhibitory concentration (IC50) turned out to be 4.7 nM.
As for `CCC(Nc1cccc(CN2CC[C@@H](C(=O)O)C2)c1C)c1ccc(Cl)c(C)c1` (stereo partly drawn) [Example 14, (R)-1-{3-[1-(4-Chloro-3-methyl-phenyl)-propylamino]-2-methyl-benzyl}-pyrrolidine-3-carboxylic acid], the IC50 came out at 1.5 nM.
For `CCC(Nc1cc(C)cc(CN2CC[C@@H](C(=O)O)C2)c1)c1ccc(Cl)c(C)c1` (stereo partly drawn) [Example 15, (R)-1-{3-[1-(4-Chloro-3-methyl-phenyl)-propylamino]-5-methyl-benzyl}-pyrrolidine-3-carboxylic acid], the half-inhibitory concentration (IC50) worked out at 2.3 nM.
Turning to `Cc1cc(C(Nc2cccc(CN3CC(C(=O)O)C3)c2)C(C)C)ccc1Cl` (centres unmarked) [Example 17, 1-{3-[1-(4-Chloro-3-methyl-phenyl)-2-methyl-propylamino]-benzyl}-azetidine-3-carboxylic acid], the IC50 was 1.6 nM.
In the case of `CC[C@@H](Nc1cccc(CN2CC(C(=O)O)C2)c1)c1cc(C)c(Cl)c(C)c1` [Example 18, 1-{3-[(R)-1-(4-Chloro-3,5-dimethyl-phenyl)-propylamino]-benzyl}-azetidine-3-carboxylic acid], the IC50 came out at 1.9 nM.
With `CC[C@@H](Nc1cccc(CN2CC(C(=O)O)C2)c1)c1ccc2c(Cl)cccc2c1` [Example 20, 1-{3-[(R)-1-(5-Chloro-naphthalen-2-yl)-propylamino]-benzyl}-azetidine-3-carboxylic acid], the half-maximal inhibitory concentration (IC50) is 2 nM.
With `CC[C@@H](Nc1ccc(C)c(CN2CC(C(=O)O)C2)c1)c1ccc(Cl)c(C)c1` [Example 22, 1-{5-[(R)-1-(4-Chloro-3-methyl-phenyl)-propylamino]-2-methyl-benzyl}-azetidine-3-carboxylic acid] the figure was 0.8 nM.
Take `CC[C@@H](Nc1cccc(CN2CC(C(=O)O)C2)c1F)c1ccc(Cl)c(C)c1` [Example 24, 1-{3-[(R)-1-(4-Chloro-3-methyl-phenyl)-propylamino]-2-fluoro-benzyl}-azetidine-3-carboxylic acid]: the half-maximal inhibitory concentration (IC50) was 1.9 nM.
`CC[C@@H](Nc1cccc(CN2CC[C@@H](C(=O)O)C2)c1F)c1ccc(Cl)c(C)c1` [Example 25, (R)-1-{3-[(R)-1-(4-Chloro-3-methyl-phenyl)-propylamino]-2-fluoro-benzyl}-pyrrolidine-3-carboxylic acid]: the half-inhibitory concentration (IC50) came out at 3.3 nM.
Consider `CC[C@@H](Nc1cc(CN2CC(C(=O)O)C2)ccc1F)c1ccc(Cl)c(C)c1` [Example 26, 1-{3-[(R)-1-(4-Chloro-3-methyl-phenyl)-propylamino]-4-fluoro-benzyl}-azetidine-3-carboxylic acid], for which the concentration for half-maximal inhibition (IC50) is 2.1 nM.
The same measure for `CC[C@@H](Nc1cc(CN2CC[C@@H](C(=O)O)C2)ccc1F)c1ccc(Cl)c(C)c1` [Example 27, (R)-1-{3-[(R)-1-(4-Chloro-3-methyl-phenyl)-propylamino]-4-fluoro-benzyl}-pyrrolidine-3-carboxylic acid]: 10.6 nM; for `CC[C@@H](Nc1ccc(C)c(CN2CC(C)(C(=O)O)C2)c1)c1ccc(Cl)c(C)c1` [Example 28, 1-{5-[(R)-1-(4-Chloro-3-methyl-phenyl)-propylamino]-2-methyl-benzyl}-3-methyl-azetidine-3-carboxylic acid]: 0.8 nM.
For the molecule `CCc1ccc(N[C@@H](c2ccc(Cl)c(C)c2)C(F)(F)F)cc1CN1CC(C(=O)O)C1` [Example 35, 1-{5-[(S)-1-(4-Chloro-3-methyl-phenyl)-2,22-trifluoro-ethylamino]-2-ethyl-benzyl}-azetidine-3-carboxylic acid], the IC50 is 1.8 nM.
With `CCc1ccc(N[C@H](CC)c2ccc(Cl)c(C)c2)cc1CN1CC[C@@H](C(=O)O)C1` [Example 36, (R)-1-{5-[(R)-1-(4-Chloro-3-methyl-phenyl)-propylamino]-2-ethyl-benzyl}-pyrrolidine-3-carboxylic acid], the IC50 was determined as 3.7 nM.
As to `CCc1ccc(N[C@H](CC)c2ccc(Cl)c(C)c2)cc1CN1CC(C(=O)O)C1` [Example 37, 1-{5-[(R)-1-(4-Chloro-3-methyl-phenyl)-propylamino]-2-ethyl-benzyl}-azetidine-3-carboxylic acid], the half-inhibitory concentration (IC50) is 2.5 nM.
Consider `CC[C@@H](Nc1ccc(Cl)c(CN2CC[C@@H](C(=O)O)C2)c1)c1ccc(Cl)c(C)c1` [Example 38, (R)-1-{2-Chloro-5-[(R)-1-(4-chloro-3-methyl-phenyl)-propylamino]-benzyl}-pyrrolidine-3-carboxylic acid], for which the concentration for half-maximal inhibition (IC50) is 0.8 nM.
